Measurements published in patent US9266817B2, “Catecholamine derivatives for obesity and neurological disorders” (EMORY UNIVERSITY, priority 2009, dated 2016).
“Also recorded” adds a separate entry of the source.

Legend:
TrkB [1] = target: T1, TrkB (Rattus norvegicus, UniProt Q63604); test: Immunoblotting of TrkB phosphorylation in primary cortical neurons treated with catecholamines; format: cell-based; conditions: cortical neurons
T1 construct: endogenous in cells; host or cells: primary rat cortical and hippocampal neurons
T1 sequence (Q63604 32-821): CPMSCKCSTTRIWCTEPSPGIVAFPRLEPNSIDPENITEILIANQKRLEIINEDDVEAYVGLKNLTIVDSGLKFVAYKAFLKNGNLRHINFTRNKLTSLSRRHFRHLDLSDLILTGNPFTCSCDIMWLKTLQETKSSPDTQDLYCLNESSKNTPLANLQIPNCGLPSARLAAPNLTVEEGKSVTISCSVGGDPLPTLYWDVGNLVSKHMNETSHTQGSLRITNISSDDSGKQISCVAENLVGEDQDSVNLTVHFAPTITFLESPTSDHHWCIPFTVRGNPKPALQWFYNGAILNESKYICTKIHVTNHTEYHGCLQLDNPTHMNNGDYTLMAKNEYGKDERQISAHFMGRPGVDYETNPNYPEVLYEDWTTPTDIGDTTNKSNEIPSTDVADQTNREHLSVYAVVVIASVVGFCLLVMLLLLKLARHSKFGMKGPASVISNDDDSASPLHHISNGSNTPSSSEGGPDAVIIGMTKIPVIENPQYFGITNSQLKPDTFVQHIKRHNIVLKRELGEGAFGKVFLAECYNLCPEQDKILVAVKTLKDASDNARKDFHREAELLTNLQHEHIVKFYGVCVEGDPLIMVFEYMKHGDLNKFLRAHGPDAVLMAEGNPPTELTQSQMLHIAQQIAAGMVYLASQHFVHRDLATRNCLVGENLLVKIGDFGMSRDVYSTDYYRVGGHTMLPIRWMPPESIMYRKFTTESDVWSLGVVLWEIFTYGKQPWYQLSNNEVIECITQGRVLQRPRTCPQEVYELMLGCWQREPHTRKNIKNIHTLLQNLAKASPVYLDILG
Protocol: Primary cultured rat cortical neurons were prepared as follows. E17 rat pups were decapitated and cortex was extirpated, cross chopped and suspended by pipetting for separation in 5% fetal calf serum (FCS), 5% horse serum (HS) DMEM. The cell suspension was then centrifuged at 250×g for 5 min. This operation was repeated. Cells were seeded into polyethyleneimine-coated 10 cm^2 dishes and 12-well plates including coated-coverslips and incubated at 37° C. in 5% CO2/95% air. After 3 hours, the culture medium was changed to Neurobasal containing B-27 supplement (Invitrogen; Carlsbad, Calif.) and incubated for 4 days. For maintenance, half of the culture medium was changed to fresh Neurobasal/B27 in every 4 days. After 1 week, the dished cultured neurons were ready for use.
To explore whether monoamine neurotransmitters, including catecholamines (see, e.g., FIG. 1), could stimulate TrkB activation, hippocampal neurons were treated with 300 nM of catecholamines, serotonin, and melatonin for 30 min.

TrkB F616A [2] = target: T2, TrkB F616A (Mus musculus, UniProt P15209); test: TrkB phosphorylation in TrkB F616A or TrkA F592A cortical neurons pretreated with K252a or 1NMPP1; format: cell-based, mice
T2 construct: endogenous in cells; host or cells: primary cortical neurons from TrkB F616A knock-in mice
T2 sequence (P15209 32-821 F616A): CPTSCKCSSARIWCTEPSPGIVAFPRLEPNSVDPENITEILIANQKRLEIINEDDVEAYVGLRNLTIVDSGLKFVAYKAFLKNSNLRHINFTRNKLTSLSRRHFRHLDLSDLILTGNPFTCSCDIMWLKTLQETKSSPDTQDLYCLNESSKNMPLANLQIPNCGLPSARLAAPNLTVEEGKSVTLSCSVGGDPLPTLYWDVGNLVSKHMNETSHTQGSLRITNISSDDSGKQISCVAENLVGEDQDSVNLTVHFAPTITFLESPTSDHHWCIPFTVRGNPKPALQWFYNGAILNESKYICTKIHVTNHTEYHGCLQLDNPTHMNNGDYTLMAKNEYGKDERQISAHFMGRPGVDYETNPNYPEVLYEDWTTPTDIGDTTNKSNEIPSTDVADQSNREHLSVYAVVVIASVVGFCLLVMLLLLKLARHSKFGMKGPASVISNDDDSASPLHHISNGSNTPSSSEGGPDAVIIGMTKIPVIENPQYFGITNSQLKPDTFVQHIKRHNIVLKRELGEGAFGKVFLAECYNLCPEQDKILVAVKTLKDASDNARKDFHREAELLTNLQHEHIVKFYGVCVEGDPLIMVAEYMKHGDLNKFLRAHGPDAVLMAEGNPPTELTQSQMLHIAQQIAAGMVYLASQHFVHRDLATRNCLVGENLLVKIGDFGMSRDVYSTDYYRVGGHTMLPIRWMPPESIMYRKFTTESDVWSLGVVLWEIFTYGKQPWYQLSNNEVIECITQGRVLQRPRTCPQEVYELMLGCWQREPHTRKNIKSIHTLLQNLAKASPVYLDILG
Protocol: (§1) TrkB F616A mice were pretreated with 1NMPP1 (50 μM) before L-DOPA or DOPS administration.
(§2) On day 7, the primary cortical neurons were pretreated with 100 nM K252a or 1NMPP1 for 30 min, followed by 500 nM ADPP and DDAP. Cell lysates were analyzed by Western blotting.

TrkB [3] = target: T1, TrkB; test: Screening of catecholamine derivatives for TrkB activation in primary cortical neurons (anti-p-TrkB-Y-816 immunoblot); format: cell-based; conditions: 500 nM, 30 min
Protocol: Catecholamines can directly bind to the kinase domain of the TrkB receptor and activate it. However, the catecholamines are not able to cross through the blood brain barrier. […] Cortical neurons (7 DIV cortical neurons from 18 day old Sprague Dawley rat embryos) were treated with 500 nM of the selected compound for 30 min and cell lysates were prepared. The cell lysates ([…]) were analyzed for TrkB activation by immunoblotting with anti-p-TrkB-Y-816 antibody.
Catecholamine derivatives as described herein, including Compound I-2, Compound I-5, Compound I-7, Compound I-8, Compound I-9, Compound I-10, Compound I-11, Compound I-14, Compound I-15, Compound I-17, Compound I-18, and isoproterenol, were screened for TrkB activation in primary cortical neurons. Cortical neurons (7 DIV cortical neurons from 18 day old Sprague Dawley rat embryos) were treated with 500 nM of the selected compound for 30 min and cell lysates were prepared. The cell lysates ([…]) were analyzed for TrkB activation by immunoblotting with anti-p-TrkB-Y-816 antibody.

TrkB F616A knockin mice = test: Kainic acid-induced neuronal apoptosis in TrkB F616A knockin mice (immunoblotting and Caspase-3 ELISA); format: in vivo; conditions: 50 mg/kg orally 2 hours before KA 20 mg/kg
Protocol: To determine whether Compound I-11 (ADPP) and Compound I-8 (DDAP) protect neurons from KA-induced apoptosis, TrkB F616A knockin mice were pretreated with inhibitor 1NMPP1 (16.6 ng/kg) 2 days before the experiment. Compound I-8 (DDAP) or Compound I-11 (ADPP) (50 mg/kg) was orally injected into the mice 2 hours before kainic acid (KA) administration (20 mg/kg). Brain lysates were analyzed by immunoblotting and Caspase-3 ELISA. […] The extent of the protective effect correlates with TrkB activation status by these compounds. Active Caspase-3 ELISA correlated with the immunoblotting results (FIG. 28B, right panel).

TrkB [4] = test: TrkB activation in mouse brain after administration of catecholamine derivatives (anti-p-TrkB-Y-816 immunoblot); format: in vivo; conditions: for Time at which TrkB activity peaked: 50 mg/kg orally; for TrkB activation in the brains of the mice: 50 mg/kg orally (in saline), C57BL/6J mice; for Oral bioavailability: mice; for Minimal dosage required to activate TrkB: orally, mice sacrificed after 4 hours; for TrkB activation in mouse brains: via drinking water or intraperitoneal injection
Protocol: To explore whether these compounds could stimulate TrkB in vivo, 50 mg/kg of Compound I-11, Compound I-8, and Compound I-2 (2-(methylamino)-3′,4′-dihydroxy-acetophenone) were each orally administered (in saline) to 2-month-old C57BL/6J mice. The mice were sacrificed at different time points and TrkB activation in the brains of the mice was monitored by immunoblotting with anti-p-TrkB-Y-816 antibody.
To determine the minimal required dosages for Compound I-11 and Compound I-8, different doses of the compounds were each orally administered to mice. The mice were sacrificed after 4 hours, and the brain lysates were analyzed by immunoblotting with anti-p-TrkB-Y-816 antibody.
To search for orally bioactive catecholamines, catecholamine derivatives described herein were screened using primary neuronal cultures. The in vitro active compounds, Compounds I-8 and I-11, were adminstered into two to three month old C57BL/6J mice orally, intraperitoneally, and in drinking water. For oral administration, the mice were administered 0 mg (control), 5 mg, 10 mg, 20 mg, or 50 mg of Compound I-8 or Compound I-11. After 4 hours, TrkB phosphorylation in mouse brain was monitored by analyzing the brain lysates using immunoblotting with anti-p-TrkB-Y-816 antibody. The ratios of p-TrK/total TrkB were quantified (FIG. 27A). For intraperitoneal administration, 50 mg/kg of Compound I-8 or Compound I-11 were intraperitoneally injected into the mice. The brain lysates were prepared at different times (0 hr, 1 hr, 2 hr, 4 hr, and 8 hr) and were analyzed by immunoblotting with anti-p-TrkB-Y-816 antibody (FIG. 27B). Compound I-8 and Compound I-11 were dissolved in drinking water and given to mice. After 24 h, the brain lysates were prepared and analyzed by immunoblotting with anti-p-TrkB-Y-816 antibody (FIG. 27C). […] Therefore, these compounds are useful in treating various neurological or neuropsychiatric diseases as described herein.

mice = test: Forced swim test; format: in vivo; conditions: for Swimming immobility: 20 mg/kg intraperitoneally, adult male mice; for Immobility time after 1NMPP1 treatment: TrkB F616A knockin mice, 1NMPP1 pretreatment
Protocol: Accumulating evidence supports that BDNF plays an essential role in mediating antidepressants' therapeutic effects. Infusion of exogenous BDNF into hippocampus or brain stem has antidepressant-like behavioral effect. A forced swim test is broadly used for screening of potential antidepressant drugs and is widely used to measure antidepressant activity. To explore whether Compound I-11 (ADPP) and Compound I-8 (DDAP) have antidepressant effects like BDNF, forced swim tests were conducted. Adult male mice (2-3 months old, n=8) were randomly submitted, without a pre-swim, to a forced swim test of 6 minutes with immobility recorded in the last 4 minutes. Mice were injected intraperitoneally with saline, Compound I-11 (20 mg/kg), or Compound I-8 (20 mg/kg). The mice were allowed to adapt to the test room for 2 days, and the mice were placed in a clear glass cylinder with a diameter of 16 cm, half-filled with clear water at 24° C.
To assess whether the behavior responses caused by catecholamine derivatives is mediated by TrkB receptor, TrkB F616A knockin mice were utilized. The mice were subjected to saline or 1NMPP1 inhibitor pretreatment.

TrkB F616A [5] = target: T3, TrkB F616A (Mus musculus, UniProt P15209, F616A); test: TrkB phosphorylation in TrkB F616A or TrkA F592A cortical neurons pretreated with K252a or 1NMPP1; format: cell-based, mice; conditions: primary TrkB F616A cortical neurons, 100 nM inhibitor 30 min, 500 nM compound
T3 construct: endogenous in cells; host or cells: primary cortical neurons from TrkB F616A knock-in mice
T3 sequence (P15209 32-821 F616A): as above
Protocol: as §1, §2

Structure (SMILES) | Effect of K252a pretreatment on catecholamine-triggered TrkB tyrosine phosphorylation (TrkB [1]) | Effect of inhibitor on catecholamine-induced TrkB activation (TrkB F616A [2]) | TrkB activation in primary cortical neurons (TrkB [3]) | Kainic acid (KA)-provoked neuronal cell death in mouse brain (TrkB F616A knockin mice) | Time at which TrkB activity peaked (TrkB [4]) [h] | TrkB activation in the brains of the mice (TrkB [4]) | Oral bioavailability (TrkB [4]) | Passage through the blood brain barrier (TrkB [4]; mouse, in vivo, po) | Minimal dosage required to activate TrkB (TrkB [4]) [mg/kg] | TrkB activation in mouse brains (TrkB [4]) | Swimming immobility (mice) | Immobility time after 1NMPP1 treatment (mice) | TrkB activation by the compound after K252a or 1NMPP1 pretreatment (TrkB F616A [5]) | Passage through the blood brain barrier (TrkB [4]; orally administered, mouse brain)
COC(=O)[C@@]1(O)C[C@H]2O[C@]1(C)n1c3ccccc3c3c4c(c5c6ccccc6n2c5c31)C(=O)NC4 [Compound K252a] | robustly blocked | robustly inhibited | – | – | – | – | – | – | – | – | – | – | – | –
CN(C)CC(=O)c1ccc(O)c(O)c1 [Compound I-8, α-dimethylamino-3′,4′-dihydroxyacetophenone] | – | – | prominently activated TrkB; also recorded: prominent stimulatory effect | potently suppress; also recorded: robustly repressed | 8 | potently activated TrkB | orally bio-available | can pass through the blood brain barrier | 20 | potently activate TrkB | significantly decreased | no significant effect | selectively blocked by 1NMPP1 but not K252a | –
CC(N)C(=O)c1ccc(O)c(O)c1 (stereo not drawn) [Compound I-11, 2-amino-3′,4′-dihydroxy-propiophenone] | – | – | prominently activated TrkB; also recorded: prominent stimulatory effect | potently suppress; also recorded: robustly repressed | 8 | potently activated TrkB | orally bio-available | – | 10 | potently activate TrkB | significantly decreased | still active in decreasing immobility | selectively blocked by 1NMPP1 but not K252a | can pass through the blood brain barrier
